Reference: patent US10328128B2, “Treatment of infection by human enterovirus D68” (priority 2014, dated 2019)
Like-named read-outs stand apart in the source and are kept apart here.

B1: DAS181: fusion protein of the catalytic domain of A. viscosus sialidase and a human amphiregulin GAG-binding anchoring domain (SEQ ID NOs: 15 and 16) (protein)
chain: MGDHPQATPAPAPDASTELPASMSQAQHLAANTATDNYRIPAITTAPNGDLLISYDERPKDNGNGGSDAPNPNHIVQRRSTDGGKTWSAPTYIHQGTETGKKVGYSDPSYVVDHQTGTIFNFHVKSYDQGWGGSRGGTDPENRGIIQAEVSTSTDNGWTWTHRTITADITKDKPWTARFAASGQGIQIQHGPHAGRLVQQYTIRTAGGAVQAVSVYSDDHGKTWQAGTPIGTGMDENKVVELSDGSLMLNSRASDGSGFRKVAHSTDGGQTWSEPVSDKNLPDSVDNAQIIRAFPNAAPDDPRAKVLLLSHSPNPRPWSRDRGTISMSCDDGASWTTSKVFHEPFVGYTTIAVQSDGSIGLLSEDAHNGADYGGIWYRNFTMNWLGEQCGQKPAKRKKKGGKNGKNRRNRKKKNPGDHPQATPAPAPDASTELPASMSQAQHLAANTATDNYRIPAITTAPNGDLLISYDERPKDNGNGGSDAPNPNHIVQRRSTDGGKTWSAPTYIHQGTETGKKVGYSDPSYVVDHQTGTIFNFHVKSYDQGWGGSRGGTDPENRGIIQAEVSTSTDNGWTWTHRTITADITKDKPWTARFAASGQGIQIQHGPHAGRLVQQYTIRTAGGAVQAVSVYSDDHGKTWQAGTPIGTGMDENKVVELSDGSLMLNSRASDGSGFRKVAHSTDGGQTWSEPVSDKNLPDSVDNAQIIRAFPNAAPDDPRAKVLLLSHSPNPRPWSRDRGTISMSCDDGASWTTSKVFHEPFVGYTTIAVQSDGSIGLLSEDAHNGADYGGIWYRNFTMNWLGEQCGQKPAKRKKKGGKNGKNRRNRKKKNP

Columns and labels:
[1] = test system: EV-D68 1962 prototype strain (Fermon); experiment: CPE inhibition assay in RD cells; type: cell-based, Human enterovirus D68; settings: read-out: Mean EC50 ± SD
[2] = test system: EV-D68 strain USA-IL/18956; experiment: CPE inhibition assay in RD cells; type: cell-based, Human enterovirus D68; settings: read-out: Mean EC50 ± SD
[3] = test system: EV-D68 strain USA-MO/18947; experiment: CPE inhibition assay in RD cells; type: cell-based, Human enterovirus D68; settings: read-out: Mean EC50 ± SD
[4] = test system: EV-D68 strain USA-MO/18949; experiment: CPE inhibition assay in RD cells; type: cell-based, Human enterovirus D68; settings: read-out: Mean EC50 ± SD
four EV-D68 strains = experiment: microbe, parasite or virus in culture; type: cell-based, Human enterovirus D68; settings: for activity against EV-D68 strains in words: highest concentration tested 10 μM; for EC50: read-out: EC50 values, range over all four EV-D68 strains
[5] = typical fluoxetine dosing; cited from earlier work
EV-D68 Fermon strain = experiment: CPE inhibition assay over a range of virus doses; type: cell-based, Human enterovirus D68; settings: Enterovirus D, EVD68; Fermon strain, 100-fold virus dose range, five half-log dilutions; upper end printed as >10 μM; data not shown; read-out: EC50 values over a range of virus doses
Protocol: Antiviral activity was assessed in a homogeneous cell-based assay that measured inhibition of viral cytopathic effect in human rhabdomyosarcoma cells (RD; ATCC CCL-136). The viruses included three representative EV-D68 strains from the 2014 outbreak (USA-MO/18947, USA-MO/18949, USA-IL/18956) (Brown et al. 2014. Seven Strains of Enterovirus D68 Detected in the United States during the 2014 Severe Respiratory Disease Outbreak. Genome Announc 2:e01201-01214), as well as the 1962 prototype strain (Fermon) (Schieble et al. 1967. A probable new human picornavirus associated with respiratory diseases. Am J Epidemiol 85:297-310). For the CPE inhibition assay, half-log10 dilutions of drug compound (10 μM to 0.001 μM) were combined with 100 CCID50 (50% cell culture infectious dose) of virus and added to monolayers of RD cells (5000 cells per well) in 384-well, white, flat-bottom microplates. Plates were incubated at 33° C. and 5% CO2 for five days, and cell viability was assessed using ATPLite® (Perkin Elmer, Waltham, Mass.) by adding 15 μL of cell lysis buffer and then 15 μL of substrate solution, following the manufacturer's recommendations.
In both studies, the methods were somewhat different from our approach. […] For the other compounds tested, similar EC50 values were observed across this same dose range. […]

[6] = test system: enterovirus D68 strains (EV-D68); experiment: DAS181 specific anti-viral assay, text summary over all strains and conditions; type: cell-based, Human enterovirus D68; settings: all conditions and all enterovirus strains tested
Protocol: (§1) As shown in the Table 2, DAS181 was tested to assess antiviral activity of the compound using a cell-based assay, and using enterovirus D68 strains (EV-D68). In this assay, using four specific EV-D68 strains, the compound was added at different time-points to each of the strains. The three time conditions tested were: (i) DAS181 preincubated with cells for 24 h before virus infection; (ii) DAS181 added simultaneously with virus; and (iii) DAS181 added 4 h post-infection. Fermon, an original prototypic strain, was used as control.

[7] = Sialidase activity with fluorogenic substrate 4-MU-NANA; type: biochemical; settings: 37° C.
Protocol: The sialidase activity of DAS181 was measured using the fluorogenic substrate 4-methylumbelliferyl-N-acetyl-α-D-neuraminic acid (4-MU-NANA; Sigma). One unit of sialidase is defined as the amount of enzyme that releases 10 nmol of MU from 4-MU-NANA in 10 minutes at 37° C. (50 mM CH3COOH—NaOH buffer, pH 5.5) in a reaction that contains 20 nmol of 4-MU-NANA in a 0.2 ml volume (Potier et al., Anal. Biochem., 94:287-296, 1979). The specific activity of DAS181 was determined to be 1,300 U/mg protein (0.77 μg DAS181 protein per unit of activity).

[8] = test system: EV-D68 strain USA-MO/238121; experiment: DAS181 specific anti-viral assay, time of addition; type: cell-based, Human enterovirus D68; settings: read-out: DAS181 Mean EC50 ± SD
Protocol: as §1

[9] = test system: EV-D68 strain USA-MO/238102; experiment: DAS181 specific anti-viral assay, time of addition; type: cell-based, Human enterovirus D68; settings: read-out: DAS181 Mean EC50 ± SD
Protocol: as §1

[10] = test system: EV-D68 strain USA-IL/238139; experiment: DAS181 specific anti-viral assay, time of addition; type: cell-based, Human enterovirus D68; settings: read-out: DAS181 Mean EC50 ± SD
Protocol: as §1

EV-D68 strain Fermon = experiment: DAS181 specific anti-viral assay, time of addition; type: cell-based, Human enterovirus D68; settings: read-out: DAS181 Mean EC50 ± SD
Protocol: as §1

[11] = Enterovirus D, EVD68, RD, 120 h
[12] = Enterovirus D, EVD68, 120 h, RD cells, 100 CCID50 virus, 33° C., five days, strain Fermon
[13] = Enterovirus D, EVD68, 120 h, RD cells, 100 CCID50 virus, 33° C., five days, strain USA-IL/18956
[14] = Enterovirus D, EVD68, 120 h, RD cells, 100 CCID50 virus, 33° C., five days, strain USA-MO/18947
[15] = Enterovirus D, EVD68, 120 h, RD cells, 100 CCID50 virus, 33° C., five days, strain USA-MO/18949
[16] = RD cells, 100 CCID50 virus, 33° C., five days, strain Fermon
[17] = RD cells, 100 CCID50 virus, 33° C., five days, strain USA-IL/18956
[18] = RD cells, 100 CCID50 virus, 33° C., five days, strain USA-MO/18947
[19] = RD cells, 100 CCID50 virus, 33° C., five days, strain USA-MO/18949
[20] = 24 hr preincubation before infection
[21] = Drug addition 4 hr after infection
[22] = No preincubation (added simultaneously with virus)

Row | Molecule | EC50 [1, 11] | EC50 [2, 11] | EC50 [3, 11] | EC50 [4, 11] | EC50 [1, 12] | EC50 [2, 13] | EC50 [3, 14] | EC50 [4, 15] | also measured
1 | NC12CC3CC(CC(C3)C1)C2 [Amantidine] | > 10 µM | > 10 µM | > 10 µM | > 10 µM | – | – | – | – | –
2 | CCOC(=O)c1c(CSc2ccccc2)n(C)c2cc(Br)c(O)c(CN(C)C)c12 [Arbidol] | > 10 µM | > 10 µM | > 10 µM | > 10 µM | – | – | – | – | –
3 | NC(=O)c1nc(F)c[nH]c1=O [Favipiravir, favipiravir] | – | – | – | – | > 10 µM | > 10 µM | > 10 µM | > 10 µM | –
4 | CNCCC(Oc1ccc(C(F)(F)F)cc1)c1ccccc1 (centres unmarked) [Fluoxetine, fluoxetine] | – | – | – | – | – | – | – | – | activity against EV-D68 strains in words (four EV-D68 strains; RD cells): significant activity; maximal plasma levels [5]: < 200 nM
5 | COc1ccc(CC(C)NCC(O)c2ccc(O)c(NC=O)c2)cc1 (centres unmarked) [Formoterol furmarate] | > 10 µM | > 10 µM | > 10 µM | > 10 µM | – | – | – | – | –
6 | CCC(C)n1ncn(-c2ccc(N3CCN(c4ccc(OCC5COC(Cn6cncn6)(c6ccc(Cl)cc6Cl)O5)cc4)CC3)cc2)c1=O (centres unmarked) [Itraconazole, itraconazole] | – | – | – | – | > 10 µM | > 10 µM | > 10 µM | > 10 µM | activity against EV-D68 strains in words (four EV-D68 strains; RD cells): failed to inhibit; EC50 (EV-D68 Fermon strain): 0.29 to 10 µM
7 | OC(c1cc(C(F)(F)F)nc2c(C(F)(F)F)cccc12)C1CCCCN1 (centres unmarked) [Mefloquine, mefloquine] | – | – | – | – | > 10 µM | > 10 µM | > 10 µM | > 10 µM | –
8 | CC(=O)Oc1ccccc1C(=O)Nc1ncc([N+](=O)[O-])s1 [Nitazoxanide, nitazoxanide] | – | – | – | – | > 10 µM | > 10 µM | > 10 µM | > 10 µM | –
9 | CCOC(=O)C1=C[C@@H](OC(CC)CC)[C@H](NC(C)=O)[C@@H](N)C1 [Oseltamivir] | > 10 µM | > 10 µM | > 10 µM | > 10 µM | – | – | – | – | –
10 | COc1ccc(OCc2ccc(COc3c(Cl)cccc3Cl)cc2)c(Cl)c1 [Pocapavir, pocapavir] | – | – | – | – | – | – | – | – | EC50 [1, 16]: > 10 µM; activity against EV-D68 strains in words (four EV-D68 strains; RD cells): inactive; EC50 [2, 17]: > 10 µM; EC50 [3, 18]: > 10 µM; EC50 [4, 19]: > 10 µM
11 | CCOC(=O)/C=C/[C@H](C[C@@H]1CCNC1=O)NC(=O)[C@@H](CC(=O)[C@@H](NC(=O)c1cc(C)on1)C(C)C)Cc1ccc(F)cc1 [Rupintrivir, rupintrivir] | 0.002 ± 0.0005 µM | 0.0037 ± 0.007 µM | 0.0046 ± 0.0016 µM | 0.0015 ± 0.003 µM | – | – | – | – | EC50 (four EV-D68 strains; Enterovirus D, EVD68, RD): 1.5 to 5.1 nM
12 | C#CC[C@@H](C(=O)N[C@H](/C=C/C(=O)OCC)C[C@@H]1CCNC1=O)n1cccc(NC(=O)c2cc(C)on2)c1=O [V-7404] | – | – | – | – | 0.0035 ± 0.0006 µM | 0.024 ± 0.007 µM | 0.026 ± 0.004 µM | 0.027 ± 0.008 µM | EC50 (four EV-D68 strains; Enterovirus D, EVD68, RD): 1.5 to 5.1 nM
13 | B1 | – | – | – | – | – | – | – | – | EC50 [1, 16]: 0.0012 ± 0.0009 µM; EC50 (four EV-D68 strains; RD cells, all four EV-D68 strains): 1.2 to 4 nM; EC50 [2, 17]: 0.004 ± 0.0016 µM; EC50 [3, 18]: 0.0036 ± 0.0015 µM; potency in words [6]: low micromolar potency; DAS181 protein per unit of activity ([7]; pH 5.5): 0.77 µg; specific activity ([7]; pH 5.5, one unit releases 10 nmol MU in 10 minutes): 1,300 U/mg protein; EC50 [8, 20]: 2.7 ± 0.4 nM; EC50 [8, 21]: 3.4 ± 1 nM; EC50 [8, 22]: 2.6 ± 1.2 nM; EC50 [9, 20]: 2 ± 0.1 nM; EC50 [9, 21]: 4.3 ± 0.4 nM; EC50 [9, 22]: 3.6 ± 1.5 nM; EC50 [10, 20]: 3.2 ± 1 nM; EC50 [10, 21]: 4 ± 1.2 nM; EC50 [10, 22]: 4 ± 1.6 nM; EC50 (EV-D68 strain Fermon; [20]): 1 ± 0.1 nM; EC50 (EV-D68 strain Fermon; [21]): 3.6 ± 1.5 nM; EC50 (EV-D68 strain Fermon; [22]): 1.2 ± 0.9 nM; EC50 [4, 19]: 0.0026 ± 0.0012 µM
